The text below walks through data of patent US3954733A, “Naphthyridine-3-carboxamido-benzylpenicillins and salts thereof” (Sumitomo Chemical Company, Limited, priority 1973, dated 1976).

What all share (assay): minimal inhibitory concentration, agar dilution method
What all share (assay type): cell-based
For orientation: Agar dilution tests growth on a series of plates holding different concentrations.

One assay relates to Escherichia coli NIHJ. An excerpt: (§1) When determined according to the agar dilution method, the penicillins (I) afford the minimal inhibitory concentrations against test microorganisms as shown in Table 2.
Assay [1] deals with Pseudomonas aeruginosa 104.
From the text: as §1

In assay [2] the test system is Staphylococcus aureus 209P.
From the text: as §1

The test system of the next assay is Proteus miravilis GN2425.
For the next assay, the system named is Proteus vulgaris HV19.

In brackets after ≈: the same amount, converted by molar mass.

Take `CCOC(=O)Oc1ccc([C@@H](NC(=O)c2cnc3ccccc3c2OC(=O)OCC)C(=O)N[C@@H]2C(=O)N3[C@@H]2SC(C)(C)[C@@H]3C(=O)O)cc1` [Example 12]: the MIC in the assay on Escherichia coli NIHJ came out at 3.13 µg/mL (≈ 4.6 µM); in assay [1] it was 6.25 µg/mL (≈ 9.18 µM); in assay [2], 0.78 µg/mL (≈ 1.15 µM); with Proteus miravilis GN2425, 3.13 µg/mL (≈ 4.6 µM); against Proteus vulgaris HV19 it was 0.2 µg/mL (≈ 0.294 µM).
`Cc1ccc2ncc(C(=O)N[C@@H](C(=O)N[C@@H]3C(=O)N4[C@@H]3SC(C)(C)[C@@H]4C(=O)O)c3ccc(O)cc3)c(O)c2n1` [Example 18]: the MIC with Escherichia coli NIHJ is 1.56 µg/mL (≈ 2.83 µM); in assay [1], 1.56 µg/mL (≈ 2.83 µM); in assay [2], 0.78 µg/mL (≈ 1.41 µM); against Proteus miravilis GN2425 it was 1.56 µg/mL (≈ 2.83 µM); with Proteus vulgaris HV19 it was 0.05 µg/mL (≈ 0.0906 µM).
Consider `CCOC(=O)Oc1ccc([C@@H](NC(=O)c2cnc3nc(C)ccc3c2O)C(=O)N[C@@H]2C(=O)N3[C@@H]2SC(C)(C)[C@@H]3C(=O)O)cc1` [Example 15], for which the MIC in the assay on Escherichia coli NIHJ came to 3.13 µg/mL (≈ 5.02 µM); in assay [1] it was 3.13 µg/mL (≈ 5.02 µM); in assay [2] it was 1.56 µg/mL (≈ 2.5 µM); against Proteus miravilis GN2425, 6.25 µg/mL (≈ 10 µM); in the assay on Proteus vulgaris HV19 it was 0.1 µg/mL (≈ 0.16 µM).
With `CC1(C)S[C@@H]2[C@H](NC(=O)C(NC(=O)c3cnc4ccccc4c3O)c3ccc(O)cc3)C(=O)N2[C@H]1C(=O)O` (mixture of isomers) [Example 6, DL-α-(4-hydroxyquinoline-3-carboxamido)-p-hydroxybenzylpenicillin], the MIC with Escherichia coli NIHJ is 6.25 µg/mL; in assay [1] it was 6.25 µg/mL; in assay [2], 0.78 µg/mL; with Proteus miravilis GN2425 it was 6.25 µg/mL; against Proteus vulgaris HV19 it was 0.2 µg/mL.
With `CC1(C)S[C@@H]2[C@H](NC(=O)[C@H](NC(=O)c3cnc4cncnc4c3O)c3ccc(O)cc3)C(=O)N2[C@H]1C(=O)O` [Example 34], the MIC in the assay with Escherichia coli NIHJ worked out at 1.56 µg/mL (≈ 2.9 µM); in assay [1], 1.56 µg/mL (≈ 2.9 µM); in assay [2], 0.78 µg/mL (≈ 1.45 µM); against Proteus miravilis GN2425, 1.56 µg/mL (≈ 2.9 µM); in the assay on Proteus vulgaris HV19, 0.05 µg/mL (≈ 0.0928 µM).
`CC1(C)S[C@@H]2[C@H](NC(=O)[C@H](NC(=O)c3cc4ccccc4nc3O)c3ccc(O)cc3)C(=O)N2[C@H]1C(=O)O` [Example 27]: the MIC amounted to 6.25 µg/mL (≈ 11.6 µM) against Escherichia coli NIHJ; 6.25 µg/mL (≈ 11.6 µM) in assay [1]; 0.78 µg/mL (≈ 1.45 µM) in assay [2]; 3.13 µg/mL (≈ 5.83 µM) against Proteus miravilis GN2425; 0.2 µg/mL (≈ 0.373 µM) against Proteus vulgaris HV19.
As to `CC1(C)S[C@@H]2[C@H](NC(=O)[C@H](NC(=O)c3cnc4cccnc4c3O)c3ccc(O)cc3)C(=O)N2[C@H]1C(=O)O` [Example 1, D-α-(4-hydroxy-1,5-naphthyridine-3-carboxamido)-p-hydroxybenzylpenicillin], the MIC is 1.56 µg/mL (≈ 2.9 µM) against Escherichia coli NIHJ; 1.56 µg/mL (≈ 2.9 µM) in assay [1]; 0.78 µg/mL (≈ 1.45 µM) in assay [2]; 1.56 µg/mL (≈ 2.9 µM) against Proteus miravilis GN2425; 0.025 µg/mL (≈ 0.0465 µM) in the assay with Proteus vulgaris HV19.
As to `CCOC(=O)Oc1ccc([C@@H](NC(=O)c2cnc3ccc(N(C)C)nc3c2O)C(=O)N[C@@H]2C(=O)N3[C@@H]2SC(C)(C)[C@@H]3C(=O)O)cc1Cl` [Example 25], the MIC in the assay with Escherichia coli NIHJ came to 3.13 µg/mL (≈ 4.56 µM); in assay [1], 3.13 µg/mL (≈ 4.56 µM); in assay [2], 0.78 µg/mL (≈ 1.14 µM); in the assay with Proteus miravilis GN2425 it was 3.13 µg/mL (≈ 4.56 µM); with Proteus vulgaris HV19, 0.05 µg/mL (≈ 0.0728 µM).
With `CC1(C)S[C@@H]2[C@H](NC(=O)[C@H](NC(=O)c3cnc4ccc(O)nc4c3O)c3ccc(O)cc3)C(=O)N2[C@H]1C(=O)O` [Example 22], the MIC in the assay with Escherichia coli NIHJ worked out at 1.56 µg/mL (≈ 2.82 µM); in assay [1], 3.13 µg/mL (≈ 5.65 µM); in assay [2], 0.78 µg/mL (≈ 1.41 µM); in the assay with Proteus miravilis GN2425, 1.56 µg/mL (≈ 2.82 µM); against Proteus vulgaris HV19 it was 0.05 µg/mL (≈ 0.0903 µM).
On to `CC1(C)S[C@@H]2[C@H](NC(=O)[C@H](NC(=O)c3cnc4ccc(N)nc4c3O)c3ccc(O)cc3)C(=O)N2[C@H]1C(=O)O` [Example 24], for which the MIC against Escherichia coli NIHJ is 1.56 µg/mL (≈ 2.82 µM); in assay [1] it was 3.13 µg/mL (≈ 5.66 µM); in assay [2], 1.56 µg/mL (≈ 2.82 µM); in the assay with Proteus miravilis GN2425, 3.13 µg/mL (≈ 5.66 µM); against Proteus vulgaris HV19, 0.05 µg/mL (≈ 0.0905 µM).
Take `CCOC(=O)Oc1ccc([C@@H](NC(=O)c2cnc3scnc3c2O)C(=O)N[C@@H]2C(=O)N3[C@@H]2SC(C)(C)[C@@H]3C(=O)O)cc1` [Example 42]: the MIC against Escherichia coli NIHJ stood at 3.13 µg/mL (≈ 5.08 µM); in assay [1], 6.25 µg/mL (≈ 10.2 µM); in assay [2], 0.78 µg/mL (≈ 1.27 µM); in the assay with Proteus miravilis GN2425, 6.25 µg/mL (≈ 10.2 µM); against Proteus vulgaris HV19, 0.2 µg/mL (≈ 0.325 µM).
On to `COc1nc(OC)c2c(O)c(C(=O)N[C@@H](C(=O)N[C@@H]3C(=O)N4[C@@H]3SC(C)(C)[C@@H]4C(=O)O)c3ccc(O)cc3)cnc2n1` [Example 28], for which the MIC in the assay with Escherichia coli NIHJ was found to be 3.13 µg/mL (≈ 5.23 µM); in assay [1], 3.13 µg/mL (≈ 5.23 µM); in assay [2] it was 0.78 µg/mL (≈ 1.3 µM); against Proteus miravilis GN2425 it was 3.13 µg/mL (≈ 5.23 µM); with Proteus vulgaris HV19 it was 0.05 µg/mL (≈ 0.0835 µM).
Consider `CC1(C)S[C@@H]2[C@H](NC(=O)C(NC(=O)c3cnc4cccnc4c3S)c3cc(Cl)c(O)c(Cl)c3)C(=O)N2[C@H]1C(=O)O` (some centres unmarked) [Example 40], for which the MIC came to 12.5 µg/mL (≈ 20.1 µM) against Escherichia coli NIHJ; 6.25 µg/mL (≈ 10 µM) in assay [1]; 1.56 µg/mL (≈ 2.51 µM) in assay [2]; 6.25 µg/mL (≈ 10 µM) against Proteus miravilis GN2425; 0.2 µg/mL (≈ 0.321 µM) against Proteus vulgaris HV19.
`CCOC(=O)Oc1ccc(C(NC(=O)c2cnc3ccc(N(C)C)nc3c2O)C(=O)N[C@@H]2C(=O)N3[C@@H]2SC(C)(C)[C@@H]3C(=O)O)cc1` (mixture of isomers) [Example 3, DL-α-(4-hydroxy-6-dimethylamino-1,5-naphthyridine-3-carboxamido)-p-ethoxycarbonyloxybenzylpenicillin]: the MIC in the assay on Escherichia coli NIHJ was determined as 1.56 µg/mL; in assay [1], 3.13 µg/mL; in assay [2], 1.56 µg/mL; in the assay on Proteus miravilis GN2425, 1.56 µg/mL; in the assay with Proteus vulgaris HV19, 0.1 µg/mL.
As for `CC1(C)S[C@@H]2[C@H](NC(=O)[C@H](NC(=O)c3cnc4ccncc4c3O)c3ccc(O)cc3)C(=O)N2[C@H]1C(=O)O` [Example 29], the MIC worked out at 12.5 µg/mL (≈ 23.3 µM) in the assay with Escherichia coli NIHJ; 6.25 µg/mL (≈ 11.6 µM) in assay [1]; 0.78 µg/mL (≈ 1.45 µM) in assay [2]; 12.5 µg/mL (≈ 23.3 µM) in the assay with Proteus miravilis GN2425; 0.2 µg/mL (≈ 0.372 µM) in the assay on Proteus vulgaris HV19.
In the case of `CCOC(=O)Oc1ccc([C@@H](NC(=O)c2cnc3cccnc3c2O)C(=O)N[C@@H]2C(=O)N3[C@@H]2SC(C)(C)[C@@H]3C(=O)O)cc1` [Example 9, D-α-(4-hydroxy-1,5-naphthyridine-3-carboxamido)-p-ethoxycarbonyloxybenzylpenicillin], the MIC in the assay with Escherichia coli NIHJ stood at 3.13 µg/mL (≈ 5.13 µM); in assay [1], 3.13 µg/mL (≈ 5.13 µM); in assay [2] it was 1.56 µg/mL (≈ 2.56 µM); in the assay on Proteus miravilis GN2425, 3.13 µg/mL (≈ 5.13 µM); in the assay with Proteus vulgaris HV19 it was 0.05 µg/mL (≈ 0.082 µM).
As to `CCOC(=O)Oc1ccc([C@@H](NC(=O)c2cnc3ccc(NC(C)=O)nc3c2O)C(=O)N[C@@H]2C(=O)N3[C@@H]2SC(C)(C)[C@@H]3C(=O)O)cc1` [Example 23], the MIC was found to be 3.13 µg/mL (≈ 4.69 µM) against Escherichia coli NIHJ; 3.13 µg/mL (≈ 4.69 µM) in assay [1]; 1.56 µg/mL (≈ 2.34 µM) in assay [2]; 3.13 µg/mL (≈ 4.69 µM) with Proteus miravilis GN2425; 0.2 µg/mL (≈ 0.3 µM) with Proteus vulgaris HV19.
In the case of `CCOC(=O)Oc1ccc([C@@H](NC(=O)c2cnc3cn[nH]c3c2O)C(=O)N[C@@H]2C(=O)N3[C@@H]2SC(C)(C)[C@@H]3C(=O)O)cc1` [Example 33], the MIC in the assay with Escherichia coli NIHJ came to 3.13 µg/mL (≈ 5.23 µM); in assay [1] it was 6.25 µg/mL (≈ 10.4 µM); in assay [2] it was 0.78 µg/mL (≈ 1.3 µM); with Proteus miravilis GN2425 it was 3.13 µg/mL (≈ 5.23 µM); against Proteus vulgaris HV19, 0.1 µg/mL (≈ 0.167 µM).
In the case of `CC1(C)S[C@@H]2[C@H](NC(=O)C(NC(=O)c3cnc4cccnc4c3O)c3cccc(O)c3)C(=O)N2[C@H]1C(=O)O` (some centres unmarked) [Example 16], the MIC in the assay with Escherichia coli NIHJ came out at 3.13 µg/mL (≈ 5.82 µM); in assay [1], 3.13 µg/mL (≈ 5.82 µM); in assay [2] it was 1.56 µg/mL (≈ 2.9 µM); in the assay with Proteus miravilis GN2425, 3.13 µg/mL (≈ 5.82 µM); with Proteus vulgaris HV19, 0.05 µg/mL (≈ 0.093 µM).

A word on the MIC: it is the least concentration at which growth counts as inhibited. Read a high MIC as a less susceptible organism.
